# From US4772594A, “Prodrug compounds, process for the preparation thereof and sustained release preparation comprising the same” (Fujisawa Pharmaceutical Co., Ltd., priority 1986, dated 1988)
# Like-named read-outs stand apart in the source and are kept apart here.
# How the values were obtained:
# [1] = system: Mouse leukemia cell L 1210; assay: Anti tumor test 1: survival of mice implanted with L 1210 leukemia; type: in vivo; details: for T/C: mean survival time vs control
# Description: The mixture of chloroform and methanol (8:2 V/V) containing egg yolk lecithin (245 μmole), egg yolk sphingomyelin (105 μmole) and Cytarabine prodrug (Example 8) (87.5 and 262.5 μmole respectively) was taken in a roundbottom flask. Liposome suspensions containing Cytarabine prodrug (Concentration: 10 and 20 μmole/ml respectively) were obtained in a similar manner to that of the above-mentioned method. Mouse leukemia cell L 1210 (10^5 cells) were implanted intraperitoneally into BDF female mice (7 weeks).
# After 24 hours after inoculation, Cytarabine aqueous solution (dose: 1000 and 3000 μmole/kg respectively), above-mentioned liposome suspension containing Cytarabine prodrug (dose: 100 and 300 μmole/kg respectively)and aqueous solution of N^4 -behenoyl-1-β-arabinofuranosylcytosine (hereinafter referred to as BHAC) which is a known compound as Cytarabine prodrug and is shown by the following structure (dose: 100 and 300 μmole/kg respectively) were administered intravenously to the mouse at a volume of 0.2 ml or 0.3 ml (in case the administration at the dose of 300 μmole/kg of Cytarabine prodrug) per 20 g of mouse body weight. After the treatment, survival of the mice was recorded. [drawing 9]
# [2] = Conversion Test 1: conversion half life of prodrug to parent compound in rat serum; type: in vitro ADME; details: rat, serum; for half-life: Half life (t 1/2)
# Method: Chloroform solution containing egg yolk lecithin (84 μmole), egg yolk sphingomyelin (36 μmole) and Mitomycin C prodrug ( 6 μmole) obtained in the below-mentioned Example 1 or 2 was poured into a round-bottom flask and evaporated to dryness.
# To this were added sodium cholate (258 mg) and pH 7.4 phosphate buffered saline (hereinafter referred to as PBS) (4.8 ml) and the mixture was agitated to give a clear purple solution.
# Sodium cholate was removed from the solution by the Lipoprep dialyzer (detergent removal apparatus prepared by Diachema Co., Ltd.) to give a liposome suspension containing Mitomycin C prodrug.
# Chloroform solution containing egg yolk lecithin (70 μmole), egg yolk sphingomyelin (30 μmole) and FR900482 substance prodrug (Example 6)(5 μmole) was poured into a round-bottom flask and a liposome suspension containing FR900482 substance prodrug was obtained in a similar manner to that of above-mentioned method.
# Above-mentioned two liposome suspensions containing Mitomycin C prodrug were each diluted with PBS at 2.5 times.
# The liposome suspension containing FR900482 substance prodrug was diluted with PBS to obtain the drug concentration of 0.5 μmole/ml and was filtered through millex-GV (trademark: prepared by Millipore Co., Ltd.) filter (0.22μ).
# After the liposome suspension and ethanol solution of each prodrug (0.5 ml) were added to mouse, rat or human serum (4.5 ml, 37° C.), samples were taken periodically and the concentration of each prodrug was determined by high-performance liquid chromotography.
# Conversion half lives (t 1/2) of each prodrug to each parent compound in various kinds of serum were calculated by the concentration of each prodrug remaining at each time.
# [3] = Bioavailability Test 1: blood concentration after i.v. administration to rats; set-up: species or system SD male rats; details: rat, in vivo, iv
# Method: Chloroform solution (14.3 ml) containing egg yolk lecithin (126 μmole), egg yolk sphingomyelin (54 μmole) and Mitomycin C prodrug (Example 1) (24 μmole) was poured into a round-bottom flask and evaporated at one hour. To this were added sodium cholate (194 mg) and PBS (6 ml) and agitated. A liposome suspension containing Mitomycin C prodrug was obtained according to a similar manner to that of above-mentioned method. The liposome suspension thus prepared was diluted with PBS to obtain the drug concentration of 3.0 μmole/ml and was filtered through a polycarbonate membrane (0.1 μ). 1.0 ml of PBS solution of Mitomycin C or the liposome suspension containing Mitomycin C prodrug prepared by the above-mentioned method was administered intravenously to SD male rats (7 weeks, body weight: about 300 g, 4 per one group) and blood samples were withdrawn at appropriate intervals from subclavian vein. The plasma samples were deproteinzed and the concentration of Mitomycin C was determined by high-performance liquid chromatography.
# While Mitomycin C prodrug in the blood was determined by high-performance liquid chromatography after extraction with ethanol from the freeze-dried blood samples.
# [4] = Bioavailability Test 2: blood concentration after i.v. administration to mice; type: in vivo, ICR female mice; details: iv, mouse, i.v. PBS solution of Mitomycin C
# Method: The blood concentrations of Mitomycin C and Mitomycin C prodrug were determined in accordance with the same procedures as described in Bioavailability Test 1.
# [5] = Toxicity test: body weight change after i.v. administration to mice; type: in vivo, ICR male mice; details: mouse
# Method: Each chloroform solution of egg yolk lecithin (126 μmole), egg yolk sphingomyelin (54 μmole) and Mitomycin C prodrug (Example 1) (3.75, 24 and 37.5 μmole respectively) was combined in a round-bottom flask and evaporated to dryness. Liposome suspensions containing Mitomycin C prodrug were obtained according to the same procedures as described above. The liposome suspensions were diluted with PBS to obtain the desired drug concentration (0.15, 0.96 and 1.50 mg/ml as Mitomycin C) and were filtered through polycarbonate membranes (0.1 μ). PBS solution of Mitomycin C (dose: 1.0 and 6.4 mg/kg/day respectively) or above-mentioned liposome suspension containing Mitomycin C prodrug (dose: 1.0, 6.4 and 10 mg/kg/day as Mitomycin C) were administered intravenously to ICR male mice (6 week) at Day 1, 3 and 5 and the body weight change was recorded from Day 1 to 15.
# [6] = system: human lung adenocarcinoma A 549; assay: Anti tumor test 2: growth inhibition of A 549 under the subrenal capsule of mice; type: in vivo; details: Day 14, i.v. aqueous solution, 1000 μmole/kg at Day 1, 5, 9
# Description: The mixture of chloroform and methanol (3:1 V/V) containing egg yolk lecithin (245 μmole), egg yolk sphingomyelin (105 μmole) and Cyarabine prodrug (Example 8) (87.5 and 157.5 μmole respectively) was taken in a round-bottom flask. Liposome suspensions containing Cytarabine prodrug (Concentration: 10 and 18 μmole/ml respectively) were obtained in a similar manner to that of the above-mentioned method.
# A fragment of human lung adenocarcinoma A 549 was implanted under the subrenal capsule of BDF female mouse (8 weeks). Cytarabine aqueous solution (dose: 1000 μmole/kg) and above-mentioned liposome suspension containing Cytarabine prodrug (dose: 100 and 180 μmole/kg respectively)were administered intravenously to the mice at a volume of 0.2 ml per mouse body weight 20 g at Day 1, 5 and 9 after implantation. The tumor volume at Day 14 after implantation was measured and the growth inhibition percent was calculated. (In this test, to clarify the anti tumor effect of each preparation, 17-allyl-1,14-dihydroxy-12-[2-(4-hydroxy-3- methoxycyclohexyl)-1-methylvinyl]-23,25-dimethoxy-13,19,21,27-tetramethyl- 11,28-dioxa-4-azatricyclo[22.3.1.0^4,9 ]octacos-18-ene-2,3,10,16-tetraone as immunosuppressive substance(dose: 32 mg/kg) was administered subcutaneously at Day 1, 2, 5, 7, 9 and 12 after implanation.)
# [7] = system: Mouse leukemia cell L 1210; assay: Anti tumor test 1: survival of mice implanted with L 1210 leukemia; type: in vivo; details: i.v. aqueous solution, 100 μmole/kg
# [8] = Bioavailability Test 3: blood concentration after i.v. emulsion or aqueous solution in mice; type: in vivo, ICR female mice; details: mouse, iv, 0.8 umol/animal, read-out: Blood concentration of Mitomycin C Prodrug (Example 1)
# Method: The liposome suspension containing Mitomycin C prodrug (Example 1), which was prepared in the above Bioavailability Test 1, was diluted with PBS at the concentration of Mitomycin C prodrug of 2.5 μmole/ml and was filtered through a polycarbonate membrane (0.1μ). 0.2 ml of PBS solution of Mitomycin C or the liposome suspension containing Mitomycin C prodrug was administered intravenously to ICR female mice (8 weeks, body weight: about 25 g, 3 per one group) respectively, and the blood samples were withdrawn by cardiac puncture under anesthesia. The blood concentrations of Mitomycin C and Mitomycin C prodrug were determined in accordance with the same procedures as described in Bioavailability Test 1.
# Each chloroform solution of Mitomycin C prodrug (Example 1) (4 μmole), Panacete 800 (trademark, prepared by Nihon Yushi Co., Ltd.) (40 mg), egg yolk lecithin (14 mg) and HCO-60 (trademark, prepared by Nikko Chemicals Co., Ltd.) (8 mg) was combined in a round-bottom flask and evaporated to dryness. To this was added PBS (1 ml) and emulsified with a sonicator to give an emulsion containing Mitomycin C prodrug. Each chloroform solution of liitomycin C prodrug (Example 1) (4 μmole) and HCO-60 (24 mg) was combined in a roundbottom flask and evaporated to dryness. The residue was dispersed in 1 ml of PBS and agitated vigorously to yield a clear solution. 0.2 ml of each preparations thus obtained which contained the prodrug at 4 μmole/ml, was administered to mice and the blood concentrations of Mitomycin C and Mitomycin C prodrug were determined according to the same procedures as described in Bioavailability Test 2.
# [9] = i.v. BHAC aqueous solution, 100 μmole/kg
# [10] = i.v. BHAC aqueous solution, 300 μmole/kg
# [11] = i.v. aqueous solution, 1000 μmole/kg
# [12] = i.v. aqueous solution (4 μmole/ml, 0.2 ml)
# [13] = i.v. emulsion (4 μmole/ml, 0.2 ml)
compound,measurement,setting,value
"CCCCCCCCCCCCCCCCCCCCCC(=O)Nc1ccn([C@@H]2O[C@H](CO)[C@@H](O)[C@@H]2O)c(=O)n1 [BHAC, N^4-behenoyl-1-β-arabinofuranosylcytosine]",Mean survival time,[1]; [9],11.0 ± 0.3 days
same,Mean survival time,[1]; [10],15.3 ± 0.5 days
same,T/C,[1]; [9],122%
same,T/C,[1]; [10],170%
"CO[C@@]12[C@H](COC(N)=O)C3=C(C(=O)C(C)=C(N)C3=O)N1C[C@H]1[C@@H]2N1C(=O)CO[C@H]1CC[C@@]2(C)C(=CC[C@H]3[C@@H]4CC[C@H]([C@H](C)CCCC(C)C)[C@@]4(C)CC[C@@H]32)C1 [Example 2, [1aS-(1aα, 8β, 8aα,8bα)]-6-amino-8-carbamoyloxymethyl-N-(cholest-5-en-3β-oxyacetyl) 1,1a,2,8,8 a,8b-hexahydro-8a-methoxy-5-methyl-aziridino [2',3':3,4]pyrrolo[1,2-a]indole-4,7-dione]",Half life (t 1/2),[2],17.3 h
same,half-life,[2],9.3 h
CO[C@@]12[C@H](COC(N)=O)C3=C(C(=O)C(C)=C(N)C3=O)N1C[C@@H]1N[C@@H]12 [Mitomycin C],concentration at 5 min,[3],10.7 µM
same,concentration at 0.25 h,[3],5.54 µM
same,concentration at 0.5 h,[3],3.32 µM
same,concentration at 1 h,[3],1.04 µM
same,concentration at 2 h,[3],0.11 µM
same,concentration at 5 min,[4]; 5 min,9.15 µM
same,concentration at 0.25 h,[4]; 15 min,2.76 µM
same,concentration at 0.5 h,[4]; 30 min,1.57 µM
same,concentration at 1 h,[4]; 1 hr,0.11 µM
same,Body weight,"[5]; i.v. PBS solution, 1.0 mg/kg/day at Day 1, 3, 5, 1 day",33.78 g
same,Body weight,"[5]; i.v. PBS solution, 1.0 mg/kg/day at Day 1, 3, 5, 5 days",33.86 g
same,Body weight,"[5]; i.v. PBS solution, 1.0 mg/kg/day at Day 1, 3, 5, 15 days",35.26 g
same,Body weight,"[5]; i.v. PBS solution, 6.4 mg/kg/day at Day 1, 3, 5, 1 day",35.54 g
same,Body weight,"[5]; i.v. PBS solution, 6.4 mg/kg/day at Day 1, 3, 5, 5 days",29.36 g
same,"Death (in body weight column, 15 days)","[5]; i.v. PBS solution, 6.4 mg/kg/day at Day 1, 3, 5, at 8 days",All died
"Nc1ccn([C@@H]2O[C@H](CO)[C@@H](O)[C@@H]2O)c(=O)n1 [Cytarabine, 1-β-D-arabinofuranosylcytosine]",Mean survival time,[1]; [11],10.8 ± 0.3 days
same,T/C,[1]; [11],120%
same,Tumor volume mean value ± standard error,[6],17.7 ± 3.2 mm^3
same,Inhibition,[6]; tumor growth,41.7%
same,Mean survival time,[7],9.5 ± 0.2 days
same,T/C,[7]; mean survival time vs control,106%
"CO[C@@]12[C@H](COC(N)=O)C3=C(C(=O)C(C)=C(N)C3=O)N1C[C@H]1[C@@H]2N1C(=O)CNC(=O)O[C@H]1CC[C@@]2(C)C(=CC[C@H]3[C@@H]4CC[C@H]([C@H](C)CCCC(C)C)[C@@]4(C)CC[C@@H]32)C1 [Example 1, [1aS-(1aα, 8β, 8aα, 8bα)]-6-amino-8-carbamoyloxymethyl-N'-[N-(cholest-5-en-3β-oxycarbonyl)glycyl]-1,1a,2,8,8a,8b-hexahydro-8a-methoxy-5-methy-aziridino[2',3':3,4]pyrrolo [1,2-a]indole-4,7-dione]",Half life (t 1/2),[2],10.0 h
same,half-life,[2],5.7 h
same,concentration at 1 h,[8]; [12],186 µM
same,concentration at 4 h,[8]; [12],73.9 µM
same,concentration at 7 h,[8]; [12],22.2 µM
same,concentration at 1 h,[8]; [13],251 µM
same,concentration at 4 h,[8]; [13],81.6 µM
same,concentration at 7 h,[8]; [13],39 µM
same,Body weight,"[5]; i.v. liposome suspension, 1.0 mg/kg/day as Mitomycin C at Day 1, 3, 5, 1 day",32.78 g
same,Body weight,"[5]; i.v. liposome suspension, 6.4 mg/kg/day as Mitomycin C at Day 1, 3, 5, 1 day",33.86 g
same,Body weight,"[5]; i.v. liposome suspension, 10.0 mg/kg/day as Mitomycin C at Day 1, 3, 5, 1 day",35.14 g
